Measurements taken from ChEMBL document CHEMBL1135401, “Pharmacophore mapping of a series of 2,4-diamino-5-deazapteridine inhibitors of Mycobacterium avium complex dihydrofolate reductase” (J Med Chem, 2002).

What follows are compounds tested against T1, Dihydrofolate reductase (Homo sapiens, UniProt P00374).
T1 sequence (P00374 whole entry): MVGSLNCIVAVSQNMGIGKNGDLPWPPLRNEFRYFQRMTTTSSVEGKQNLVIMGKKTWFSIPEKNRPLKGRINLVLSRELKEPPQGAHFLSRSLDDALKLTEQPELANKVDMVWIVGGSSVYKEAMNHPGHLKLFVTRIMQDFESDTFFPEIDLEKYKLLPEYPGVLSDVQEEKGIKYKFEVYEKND

Structure (SMILES)	IC50 [nM]
Cc1c(CNc2cccc3ccccc23)cnc2nc(N)nc(N)c12	< 100

Each compound was assayed against T2, Dihydrofolate reductase (Mycobacterium avium, UniProt O30463) (assay: Antimycobacterial activity against Mycobacterium avium complex dihydrofolate reductase (MAC DHFR)).
T2 sequence (O30463 whole entry): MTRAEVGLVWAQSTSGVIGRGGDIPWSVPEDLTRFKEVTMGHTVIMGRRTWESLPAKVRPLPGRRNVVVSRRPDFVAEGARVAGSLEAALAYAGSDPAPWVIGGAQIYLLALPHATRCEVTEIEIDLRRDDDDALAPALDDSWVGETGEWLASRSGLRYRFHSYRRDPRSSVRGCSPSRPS

Structure (SMILES)	IC50 [nM]
COc1ccc(NCc2cnc3nc(N)nc(N)c3c2C)cc1F	0.91
Cc1c(CNc2ccccc2Cl)cnc2nc(N)nc(N)c12	0.91
Cc1ccc(Cl)c(NCc2cnc3nc(N)nc(N)c3c2C)c1	0.95
COc1ccc(NCc2cnc3nc(N)nc(N)c3c2C)cc1OC	0.7
Cc1c(CN(C)c2cccc3c2CCCC3)cnc2nc(N)nc(N)c12	1.9
Cc1ccc(NCc2cnc3nc(N)nc(N)c3c2C)cc1Br	0.6
COc1cc(SCc2cnc3nc(N)nc(N)c3c2C)cc(OC)c1OC	4.5
CCCOc1ccc(OCCC)c(NCc2cnc3nc(N)nc(N)c3c2C)c1	1
COc1ccc(C(F)(F)F)cc1N(C)Cc1cnc2nc(N)nc(N)c2c1C	1.2
Nc1nc(N)c2cc(CNc3cccc4ccccc34)cnc2n1	86
Cc1c(CNC2c3ccccc3-c3ccccc32)cnc2nc(N)nc(N)c12	320
CCCOc1ccc(NCc2cnc3nc(N)nc(N)c3c2C)cc1OC	0.93
Cc1c(CNc2cc(C(F)(F)F)ccc2Br)cnc2nc(N)nc(N)c12	0.82
Cc1ccc(Cl)cc1NCc1cnc2nc(N)nc(N)c2c1C	0.79
Cc1c(CSc2cccc3ccccc23)cnc2nc(N)nc(N)c12	4.6
Cc1c(CNc2cccc3ncccc23)cnc2nc(N)nc(N)c12	0.98
COc1cc(-c2ccccc2)ccc1NCc1cnc2nc(N)nc(N)c2c1C	0.91
CCc1c(CNc2cc(OC)ccc2OC)cnc2nc(N)nc(N)c12	2.8
Cc1ccc(F)c(NCc2cnc3nc(N)nc(N)c3c2C)c1	1.1
Cc1c(CNc2ccc(Cl)c(Cl)c2)cnc2nc(N)nc(N)c12	0.92

Structure (SMILES)	IC50 [nM]
Cc1cc(Br)ccc1NCc1cnc2nc(N)nc(N)c2c1C	0.85
Cc1c(CNc2cccc(Cl)c2)cnc2nc(N)nc(N)c12	0.82
Cc1c(CNc2ccc(OC(F)F)cc2)cnc2nc(N)nc(N)c12	1.1
COc1cccc(SCc2cnc3nc(N)nc(N)c3c2C)c1	2.7
Cc1c(CNc2ccc(Cl)cc2)cnc2nc(N)nc(N)c12	0.84
Cc1c(CNc2ccc(Cl)c3ccccc23)cnc2nc(N)nc(N)c12	0.43
COc1ccc(OC)c(SCc2cnc3nc(N)nc(N)c3c2C)c1	23
Cc1c(CNc2cnc3ccccc3c2)cnc2nc(N)nc(N)c12	1.2
COc1ccc(C)cc1NCc1cnc2nc(N)nc(N)c2c1C	0.86
COc1cc(CCc2cnc3nc(N)nc(N)c3c2C)cc(OC)c1	1.5
COc1ccc(C(F)(F)F)cc1NCc1cnc2nc(N)nc(N)c2c1C	0.66
Cc1cc(NCc2cnc3nc(N)nc(N)c3c2C)ccc1Br	0.87
Cc1c(CNc2ccccc2OC(F)F)cnc2nc(N)nc(N)c12	0.87
Cc1c(CNc2ccc3c(c2)Cc2ccccc2-3)cnc2nc(N)nc(N)c12	0.86
Cc1ccc(F)cc1NCc1cnc2nc(N)nc(N)c2c1C	0.85
Cc1ccc(C)c(NCc2cnc3nc(N)nc(N)c3c2C)c1	0.92
COc1ccc(SCc2cnc3nc(N)nc(N)c3c2C)cc1OC	1.5
COc1cc(NCc2cnc3nc(N)nc(N)c3c2C)cc(OC)c1	20
Cc1c(CNc2cccc3ccccc23)cnc2nc(N)nc(N)c12	0.81

The compounds below were run against T2, Dihydrofolate reductase (assay: Antimycobacterial activity scale was evaluated and found to be highly active against MAC Dihydrofolate reductase).

Structure (SMILES)	IC50 [nM]
CCCOc1ccc(NCc2cnc3nc(N)nc(N)c3c2C)cc1OC	< 10

Each compound was assayed against T1, Dihydrofolate reductase (assay: Antimycobacterial activity against human dihydrofolate reductase (hDHFR)).

Structure (SMILES)	IC50 [nM]
COc1ccc(NCc2cnc3nc(N)nc(N)c3c2C)cc1F	14
Cc1c(CNc2ccccc2Cl)cnc2nc(N)nc(N)c12	120
Cc1ccc(Cl)c(NCc2cnc3nc(N)nc(N)c3c2C)c1	44
COc1ccc(NCc2cnc3nc(N)nc(N)c3c2C)cc1OC	5.1
Cc1c(CN(C)c2cccc3c2CCCC3)cnc2nc(N)nc(N)c12	710
Cc1ccc(NCc2cnc3nc(N)nc(N)c3c2C)cc1Br	3.7
COc1cc(SCc2cnc3nc(N)nc(N)c3c2C)cc(OC)c1OC	1200
CCCOc1ccc(OCCC)c(NCc2cnc3nc(N)nc(N)c3c2C)c1	7300
COc1ccc(C(F)(F)F)cc1N(C)Cc1cnc2nc(N)nc(N)c2c1C	36
Nc1nc(N)c2cc(CNc3cccc4ccccc34)cnc2n1	820
Cc1c(CNC2c3ccccc3-c3ccccc32)cnc2nc(N)nc(N)c12	5300
CCCOc1ccc(NCc2cnc3nc(N)nc(N)c3c2C)cc1OC	15
Cc1c(CNc2cc(C(F)(F)F)ccc2Br)cnc2nc(N)nc(N)c12	3.2
Cc1ccc(Cl)cc1NCc1cnc2nc(N)nc(N)c2c1C	6.1
Cc1c(CSc2cccc3ccccc23)cnc2nc(N)nc(N)c12	440
Cc1c(CNc2cccc3ncccc23)cnc2nc(N)nc(N)c12	4.3
COc1cc(-c2ccccc2)ccc1NCc1cnc2nc(N)nc(N)c2c1C	68
CCc1c(CNc2cc(OC)ccc2OC)cnc2nc(N)nc(N)c12	1000
Cc1ccc(F)c(NCc2cnc3nc(N)nc(N)c3c2C)c1	250

Structure (SMILES)	IC50 [nM]
Cc1c(CNc2ccc(Cl)c(Cl)c2)cnc2nc(N)nc(N)c12	5
Cc1cc(Br)ccc1NCc1cnc2nc(N)nc(N)c2c1C	5.9
Cc1c(CNc2cccc(Cl)c2)cnc2nc(N)nc(N)c12	17
Cc1c(CNc2ccc(OC(F)F)cc2)cnc2nc(N)nc(N)c12	20
COc1cccc(SCc2cnc3nc(N)nc(N)c3c2C)c1	500
Cc1c(CNc2ccc(Cl)cc2)cnc2nc(N)nc(N)c12	27
Cc1c(CNc2ccc(Cl)c3ccccc23)cnc2nc(N)nc(N)c12	2
COc1ccc(OC)c(SCc2cnc3nc(N)nc(N)c3c2C)c1	2500
Cc1c(CNc2cnc3ccccc3c2)cnc2nc(N)nc(N)c12	12
COc1ccc(C)cc1NCc1cnc2nc(N)nc(N)c2c1C	300
COc1cc(CCc2cnc3nc(N)nc(N)c3c2C)cc(OC)c1	990
COc1ccc(C(F)(F)F)cc1NCc1cnc2nc(N)nc(N)c2c1C	2.7
Cc1cc(NCc2cnc3nc(N)nc(N)c3c2C)ccc1Br	6.1
Cc1c(CNc2ccccc2OC(F)F)cnc2nc(N)nc(N)c12	277
Cc1c(CNc2ccc3c(c2)Cc2ccccc2-3)cnc2nc(N)nc(N)c12	6.7
Cc1ccc(F)cc1NCc1cnc2nc(N)nc(N)c2c1C	19
Cc1ccc(C)c(NCc2cnc3nc(N)nc(N)c3c2C)c1	57
COc1ccc(SCc2cnc3nc(N)nc(N)c3c2C)cc1OC	440
Cc1c(CNc2cccc3ccccc23)cnc2nc(N)nc(N)c12	4.3

The compounds below were run against T1, Dihydrofolate reductase (assay: Antimycobacterial activity against Human dihydrofolatereductase (hDHFR)).

Structure (SMILES)	IC50 [nM]
COc1cc(NCc2cnc3nc(N)nc(N)c3c2C)cc(OC)c1	15
